# ChEMBL document CHEMBL3885861, “Open TG-GATES”
# Organism: Rattus norvegicus
# Assay: Open TG-GATES - Regimen: Daily Repeat
# Assay type: toxicity, organism-based, Sprague-Dawley
# Parameters: regimen Daily Repeat, gender Male, age 6 weeks
# Settings: in vivo, po, 0 mg/kg, route gavage, dose level Control; for APTT / Bas / Eos / Fbg / Hb / Ht / Lym / MCH / MCHC / MCV / Mono / Neu / PT / Plat / RBC / Ret / WBC: tissue Blood; for KIDNEY_L / KIDNEY_R / KIDNEY_TOTAL: tissue Kidney; for LIVER: tissue Liver; for A/G / ALP / ALT / AST / BUN / CRE / Ca / Cl / DBIL / GLC / IP / K / LDH / Na / PL / RALB / TBIL / TC / TG / TP / gamma-GTP: tissue Plasma
smiles,measurement,setting,value
CCN1CCCC1CNC(=O)c1cc(S(N)(=O)=O)ccc1OC (configuration not stated) [SULPIRIDE],TERMINAL_BW,"72 h, time 3 day",237.8 g
same,APTT,"72 h, time 3 day",16.8 s
same,Bas,"72 h, time 3 day",0%
same,Eos,"72 h, time 3 day",1%
same,Fbg,"72 h, time 3 day",286.8 mg/dL
same,Hb,"72 h, time 3 day",13.4 g/dL
same,Ht,"72 h, time 3 day",41.1%
same,Lym,"72 h, time 3 day",81.6%
same,MCH,"72 h, time 3 day",20.7 pg
same,MCHC,"72 h, time 3 day",32.7%
same,MCV,"72 h, time 3 day",63.2 fL
same,Mono,"72 h, time 3 day",2.8%
same,Neu,"72 h, time 3 day",14%
same,PT,"72 h, time 3 day",12.9 s
same,Plat,"72 h, time 3 day",117.1 x10_4/uL
same,RBC,"72 h, time 3 day",650.4 x10_4/ul
same,Ret,"72 h, time 3 day",6.9%
same,WBC,"72 h, time 3 day",82.7 x10_2/uL
same,KIDNEY_L,"72 h, time 3 day",1.1 g
same,KIDNEY_R,"72 h, time 3 day",1 g
same,KIDNEY_TOTAL,"72 h, time 3 day",2.1 g
same,LIVER,"72 h, time 3 day",11.3 g
same,A/G,"72 h, time 3 day",0.9
same,ALP,"72 h, time 3 day",1602.4 IU/L
same,ALT,"72 h, time 3 day",44.8 IU/L
same,AST,"72 h, time 3 day",67.2 IU/L
same,BUN,"72 h, time 3 day",15.8 mg/dL
same,CRE,"72 h, time 3 day",0.2 mg/dL
same,Ca,"72 h, time 3 day",11.1 mg/dL
same,Cl,"72 h, time 3 day",104.4 meq/L
same,DBIL,"72 h, time 3 day",0.012 mg/dL
same,GLC,"72 h, time 3 day",188.8 mg/dL
same,IP,"72 h, time 3 day",7.3 mg/dL
same,K,"72 h, time 3 day",4.3 meq/L
same,LDH,"72 h, time 3 day",73.8 IU/L
same,Na,"72 h, time 3 day",140.2 meq/L
same,PL,"72 h, time 3 day",153.2 mg/dL
same,RALB,"72 h, time 3 day",2.7 g/dL
same,TBIL,"72 h, time 3 day",0.054 mg/dL
same,TC,"72 h, time 3 day",79.6 mg/dL
same,TG,"72 h, time 3 day",108.6 mg/dL
same,TP,"72 h, time 3 day",5.7 g/dL
same,gamma-GTP,"72 h, time 3 day",1 IU/L
same,TERMINAL_BW,"[…], time 7 day",264.7 g
same,TERMINAL_BW,"[…], time 14 day",315.8 g
same,TERMINAL_BW,"[…], time 28 day",375.6 g
same,APTT,"[…], time 7 day",16.6 s
same,Bas,"[…], time 7 day",0.4%
same,Eos,"[…], time 7 day",1%
same,Fbg,"[…], time 7 day",286.6 mg/dL
same,Hb,"[…], time 7 day",13.9 g/dL
same,Ht,"[…], time 7 day",42%
same,Lym,"[…], time 7 day",82%
same,MCH,"[…], time 7 day",20.7 pg
same,MCHC,"[…], time 7 day",33.2%
same,MCV,"[…], time 7 day",62.5 fL
same,Mono,"[…], time 7 day",2.4%
same,Neu,"[…], time 7 day",14%
same,PT,"[…], time 7 day",12.8 s
same,Plat,"[…], time 7 day",131 x10_4/uL
same,RBC,"[…], time 7 day",672.6 x10_4/ul
same,Ret,"[…], time 7 day",5.3%
same,WBC,"[…], time 7 day",110.2 x10_2/uL
same,APTT,"[…], time 14 day",17.2 s
same,Bas,"[…], time 14 day",0.4%
same,Eos,"[…], time 14 day",0.8%
same,Fbg,"[…], time 14 day",289 mg/dL
same,Hb,"[…], time 14 day",14.6 g/dL
same,Ht,"[…], time 14 day",43.8%
same,Lym,"[…], time 14 day",77.4%
same,MCH,"[…], time 14 day",20 pg
same,MCHC,"[…], time 14 day",33.3%
same,MCV,"[…], time 14 day",60 fL
same,Mono,"[…], time 14 day",2.4%
same,Neu,"[…], time 14 day",18.6%
same,PT,"[…], time 14 day",13 s
same,Plat,"[…], time 14 day",112.7 x10_4/uL
same,RBC,"[…], time 14 day",731.4 x10_4/ul
same,Ret,"[…], time 14 day",3.9%
same,WBC,"[…], time 14 day",115 x10_2/uL
same,APTT,"[…], time 28 day",19.6 s
same,Bas,"[…], time 28 day",0%
same,Eos,"[…], time 28 day",1.2%
same,Fbg,"[…], time 28 day",286.6 mg/dL
same,Hb,"[…], time 28 day",15.8 g/dL
same,Ht,"[…], time 28 day",46%
same,Lym,"[…], time 28 day",77.4%
same,MCH,"[…], time 28 day",19.1 pg
same,MCHC,"[…], time 28 day",34.3%
same,MCV,"[…], time 28 day",55.6 fL
same,Mono,"[…], time 28 day",1.8%
same,Neu,"[…], time 28 day",19%
same,PT,"[…], time 28 day",12.9 s
same,Plat,"[…], time 28 day",119.5 x10_4/uL
same,RBC,"[…], time 28 day",827.2 x10_4/ul
same,Ret,"[…], time 28 day",2.4%
same,WBC,"[…], time 28 day",106.9 x10_2/uL
same,KIDNEY_L,"[…], time 7 day",1.1 g
same,KIDNEY_R,"[…], time 7 day",1.1 g
same,KIDNEY_TOTAL,"[…], time 7 day",2.2 g
same,KIDNEY_L,"[…], time 14 day",1.2 g
same,KIDNEY_R,"[…], time 14 day",1.2 g
same,KIDNEY_TOTAL,"[…], time 14 day",2.4 g
same,KIDNEY_L,"[…], time 28 day",1.2 g
same,KIDNEY_R,"[…], time 28 day",1.2 g
same,KIDNEY_TOTAL,"[…], time 28 day",2.5 g
same,LIVER,"[…], time 7 day",12.3 g
same,LIVER,"[…], time 14 day",13.1 g
same,LIVER,"[…], time 28 day",14.3 g
same,A/G,"[…], time 7 day",0.9
same,ALP,"[…], time 7 day",1380.6 IU/L
same,ALT,"[…], time 7 day",44.2 IU/L
same,AST,"[…], time 7 day",64.8 IU/L
same,BUN,"[…], time 7 day",16 mg/dL
same,CRE,"[…], time 7 day",0.2 mg/dL
same,Ca,"[…], time 7 day",10.8 mg/dL
same,Cl,"[…], time 7 day",104.4 meq/L
same,DBIL,"[…], time 7 day",0.016 mg/dL
same,GLC,"[…], time 7 day",181.6 mg/dL
same,IP,"[…], time 7 day",7.7 mg/dL
same,K,"[…], time 7 day",4.5 meq/L
same,LDH,"[…], time 7 day",64.4 IU/L
same,Na,"[…], time 7 day",141.2 meq/L
same,PL,"[…], time 7 day",152.8 mg/dL
same,RALB,"[…], time 7 day",2.6 g/dL
same,TBIL,"[…], time 7 day",0.052 mg/dL
same,TC,"[…], time 7 day",76.8 mg/dL
same,TG,"[…], time 7 day",118 mg/dL
same,TP,"[…], time 7 day",5.5 g/dL
same,gamma-GTP,"[…], time 7 day",1 IU/L
same,A/G,"[…], time 14 day",0.8
same,ALP,"[…], time 14 day",1582.6 IU/L
same,ALT,"[…], time 14 day",38.8 IU/L
same,AST,"[…], time 14 day",68.8 IU/L
same,BUN,"[…], time 14 day",17 mg/dL
same,CRE,"[…], time 14 day",0.2 mg/dL
same,Ca,"[…], time 14 day",11 mg/dL
same,Cl,"[…], time 14 day",103.2 meq/L
same,DBIL,"[…], time 14 day",0.012 mg/dL
same,GLC,"[…], time 14 day",193.8 mg/dL
same,IP,"[…], time 14 day",7.4 mg/dL
same,K,"[…], time 14 day",3.7 meq/L
same,LDH,"[…], time 14 day",67 IU/L
same,Na,"[…], time 14 day",141.2 meq/L
same,PL,"[…], time 14 day",146.2 mg/dL
same,RALB,"[…], time 14 day",2.6 g/dL
same,TBIL,"[…], time 14 day",0.056 mg/dL
same,TC,"[…], time 14 day",68.2 mg/dL
same,TG,"[…], time 14 day",133.4 mg/dL
same,TP,"[…], time 14 day",5.8 g/dL
same,gamma-GTP,"[…], time 14 day",1 IU/L
same,A/G,"[…], time 28 day",0.8
same,ALP,"[…], time 28 day",975.6 IU/L
same,ALT,"[…], time 28 day",38.2 IU/L
same,AST,"[…], time 28 day",63.8 IU/L
same,BUN,"[…], time 28 day",17.2 mg/dL
same,CRE,"[…], time 28 day",0.3 mg/dL
same,Ca,"[…], time 28 day",10.5 mg/dL
same,Cl,"[…], time 28 day",104.8 meq/L
same,DBIL,"[…], time 28 day",0.012 mg/dL
same,GLC,"[…], time 28 day",169.2 mg/dL
same,IP,"[…], time 28 day",6.8 mg/dL
same,K,"[…], time 28 day",3.7 meq/L
same,LDH,"[…], time 28 day",61.8 IU/L
same,Na,"[…], time 28 day",143.6 meq/L
same,PL,"[…], time 28 day",147 mg/dL
same,RALB,"[…], time 28 day",2.8 g/dL
same,TBIL,"[…], time 28 day",0.062 mg/dL
same,TC,"[…], time 28 day",66.4 mg/dL
same,TG,"[…], time 28 day",167 mg/dL
same,TP,"[…], time 28 day",6.1 g/dL
same,gamma-GTP,"[…], time 28 day",1 IU/L
